Literature values in US20130324508A1, “BIOMARKER FOR PROSTATE CANCER AND METHOD OF USING THE SAME” (UNIVERSITY OF TENNESSEE RESEARCH FOUNDATION, priority 2012, published 2013).

Legend:
[1] = system: PC-3; details: androgen-independent PC-3 cells; cited from earlier work
[2] = system: DU145; details: androgen-independent DU145 cells; cited from earlier work
[3] = system: LNCaP; details: androgen-dependent LNCaP cells; cited from earlier work

C[N+](C)(C)CCOC(N)=O [carbachol]
ERK phosphorylation [1]: ERK phosphorylation is noted | ERK phosphorylation [2]: ERK phosphorylation is noted | ERK phosphorylation [3]: not
